Here are results for 23 compounds from ChEMBL document CHEMBL1759957, “Synthesis and antibacterial evaluation of novel 8-fluoro Norfloxacin derivatives as potential probes for methicillin and vancomycin-resistant Staphylococcus aureus” (2011).

One assay has as its system Klebsiella pneumoniae. Description: microbe, parasite or virus in culture. Type of assay: functional. The conditions noted are these: ATCC 27736, 24 h.
For another assay, the system named is Staphylococcus aureus. Description: microbe, parasite or virus in culture. As to conditions: ATCC 25923, 24 h. The class given is functional.

Values after ≈ are worked out from the molar mass of the structure shown.

Description for Klebsiella pneumoniae: Antibacterial activity against Klebsiella pneumoniae ATCC 27736 after 24 hrs by spectrophotometry
Description for Staphylococcus aureus: Antibacterial activity against methicillin- resistant Staphylococcus aureus ATCC 25923 after 24 hrs by spectrophotometry

`CCn1cc(C(=O)O)c(=O)c2cc(F)c(NCCN3CCOCC3)c(F)c21`: the MIC in the assay on Klebsiella pneumoniae worked out at 1.56 µg/mL (≈ 4.09 µM); in the assay on Staphylococcus aureus it was 3.12 µg/mL (≈ 8.18 µM).
On to `CCn1cc(C(=O)O)c(=O)c2cc(F)c(NCCCN3CCOCC3)c(F)c21`, for which the MIC with Klebsiella pneumoniae turned out to be 1.56 µg/mL (≈ 3.95 µM); in the assay on Staphylococcus aureus, 3.12 µg/mL (≈ 7.89 µM).
As for `CCn1cc(C(=O)O)c(=O)c2cc(F)c(NC(C)(C)C)c(F)c21`, the MIC against Klebsiella pneumoniae is 0.09 µg/mL (≈ 0.277 µM); in the assay with Staphylococcus aureus it was 12.5 µg/mL (≈ 38.5 µM).
As to `CCCNc1c(F)cc2c(=O)c(C(=O)O)cn(CC)c2c1F`, the MIC was determined as 0.78 µg/mL (≈ 2.51 µM) in the assay on Klebsiella pneumoniae and 12.5 µg/mL (≈ 40.3 µM) in the assay with Staphylococcus aureus.
For the compound `O=C(O)c1cn(Cc2ccc(C(F)(F)F)cc2)c2c(F)c(N3CCOCC3)c(F)cc2c1=O`, the MIC in the assay with Klebsiella pneumoniae and against Staphylococcus aureus was 12.5 µg/mL (≈ 26.7 µM) each time.
For the compound `O=C(O)c1cn(Cc2ccc(C(F)(F)F)cc2)c2c(F)c(N3CCCCC3)c(F)cc2c1=O`, the MIC was 12.5 µg/mL (≈ 26.8 µM) in the assay with Klebsiella pneumoniae and more than 50 µg/mL against Staphylococcus aureus.
In the same order, the values of `O=C(O)c1cn(Cc2ccc(C(F)(F)F)cc2)c2c(F)c(N3CCNCC3)c(F)cc2c1=O` are 12.5 µg/mL (≈ 26.7 µM) and more than 50 µg/mL.
Consider `CN1CCN(c2c(F)cc3c(=O)c(C(=O)O)cn(Cc4ccc(C(F)(F)F)cc4)c3c2F)CC1`, for which the MIC in the assay on Klebsiella pneumoniae and against Staphylococcus aureus was more than 50 µg/mL in each case.
`CCN1CCN(c2c(F)cc3c(=O)c(C(=O)O)cn(Cc4ccc(C(F)(F)F)cc4)c3c2F)CC1`: the MIC in the assay with Klebsiella pneumoniae and against Staphylococcus aureus was more than 50 µg/mL in each case.
In the case of `O=C(O)c1cn(Cc2ccc(C(F)(F)F)cc2)c2c(F)c(N3CCN(Cc4ccccc4)CC3)c(F)cc2c1=O`, the MIC against Klebsiella pneumoniae and with Staphylococcus aureus was 1.56 µg/mL (≈ 2.8 µM) each time.
For the compound `O=C(O)c1cn(Cc2ccc(C(F)(F)F)cc2)c2c(F)c(NCCN3CCOCC3)c(F)cc2c1=O`, the values for the MIC in the assay with Klebsiella pneumoniae and against Staphylococcus aureus were 12.5 µg/mL (≈ 24.4 µM) and more than 50 µg/mL, respectively.
Consider `O=C(O)c1cn(Cc2ccc(C(F)(F)F)cc2)c2c(F)c(NCCCN3CCOCC3)c(F)cc2c1=O`, for which the results for the MIC against Klebsiella pneumoniae and against Staphylococcus aureus were 25 µg/mL (≈ 47.6 µM) and more than 50 µg/mL, respectively.
Turning to `CCCCNc1c(F)cc2c(=O)c(C(=O)O)cn(Cc3ccc(C(F)(F)F)cc3)c2c1F`, the MIC against Klebsiella pneumoniae and against Staphylococcus aureus was more than 50 µg/mL each time.
`CC(C)(C)Nc1c(F)cc2c(=O)c(C(=O)O)cn(Cc3ccc(C(F)(F)F)cc3)c2c1F`: the MIC with Klebsiella pneumoniae and in the assay with Staphylococcus aureus was more than 50 µg/mL in each case.
As to `CCCNc1c(F)cc2c(=O)c(C(=O)O)cn(Cc3ccc(C(F)(F)F)cc3)c2c1F`, the MIC with Klebsiella pneumoniae was determined as 3.12 µg/mL (≈ 7.08 µM); in the assay on Staphylococcus aureus, 1.56 µg/mL (≈ 3.54 µM).
`CC(C)Nc1c(F)cc2c(=O)c(C(=O)O)cn(Cc3ccc(C(F)(F)F)cc3)c2c1F`: the figures for the MIC in the assay with Klebsiella pneumoniae and with Staphylococcus aureus were 1.56 µg/mL (≈ 3.54 µM) and 3.12 µg/mL (≈ 7.08 µM), respectively.
For the compound `CCn1cc(C(=O)O)c(=O)c2cc(F)c(N3CCN(c4nc(N5CCOCC5)nc(N5CCOCC5)n4)CC3)c(F)c21`, the MIC against Klebsiella pneumoniae and against Staphylococcus aureus was 3.12 µg/mL (≈ 5.32 µM) each time.
Consider `CCn1cc(C(=O)O)c(=O)c2cc(F)c(N3CCN(c4nc(NCCCN5CCOCC5)nc(NCCCN5CCOCC5)n4)CC3)c(F)c21`, for which the MIC against Klebsiella pneumoniae and against Staphylococcus aureus was 12.5 µg/mL (≈ 17.8 µM) in each case.
For the compound `CCn1cc(C(=O)O)c(=O)c2cc(F)c(N3CCN(c4nc(NC(C)(C)C)nc(NC(C)(C)C)n4)CC3)c(F)c21`, the MIC in the assay on Klebsiella pneumoniae was determined as 0.39 µg/mL (≈ 0.698 µM); in the assay with Staphylococcus aureus, 3.12 µg/mL (≈ 5.59 µM).
`O=C(O)c1cn(Cc2ccc(C(F)(F)F)cc2)c2c(F)c(N3CCN(c4nc(N5CCCCC5)nc(N5CCCCC5)n4)CC3)c(F)cc2c1=O`: the MIC against Klebsiella pneumoniae and against Staphylococcus aureus was 50 µg/mL (≈ 70.2 µM) each time.
In the case of `CN1CCN(c2nc(N3CCN(C)CC3)nc(N3CCN(c4cc5c(cc4F)c(=O)c(C(=O)O)cn5Cc4ccc(C(F)(F)F)cc4)CC3)n2)CC1`, the MIC was 12.5 µg/mL (≈ 17.2 µM) against Klebsiella pneumoniae and 25 µg/mL (≈ 34.5 µM) with Staphylococcus aureus.
Turning to `O=C(O)c1cn(Cc2ccc(C(F)(F)F)cc2)c2c(F)c(N3CCN(c4nc(NCCN5CCOCC5)nc(NCCN5CCOCC5)n4)CC3)c(F)cc2c1=O`, the MIC with Klebsiella pneumoniae turned out to be 6.25 µg/mL (≈ 7.79 µM); in the assay with Staphylococcus aureus it was 12.5 µg/mL (≈ 15.6 µM).
Consider `Cc1cc(N2CCN(c3c(F)cc4c(=O)c(C(=O)O)cn(Cc5ccc(C(F)(F)F)cc5)c4c3F)CC2)nc(NCCCN2CCOCC2)n1`, for which the MIC was 6.25 µg/mL (≈ 8.91 µM) against Klebsiella pneumoniae and 25 µg/mL (≈ 35.6 µM) against Staphylococcus aureus.
